Biological target: T1, SRPK2 (Homo sapiens, UniProt P78362)
T1 construct: purchased Thermo Fisher Scientific (Life Technologies) SelectScreen
Experiment: SelectScreen Z'LYTE
Format: biochemical
Summary of the method: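 NU5455 was profiled across the SelectScreen Broad panel of kinase activity and binding assays. Z'LYTE reactions such as CSF1R ran at apparent Km ATP, while the Adapta CAMK1 assay used ATP listed as 10. Values are given as percent.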

T1 sequence (P78362 whole entry): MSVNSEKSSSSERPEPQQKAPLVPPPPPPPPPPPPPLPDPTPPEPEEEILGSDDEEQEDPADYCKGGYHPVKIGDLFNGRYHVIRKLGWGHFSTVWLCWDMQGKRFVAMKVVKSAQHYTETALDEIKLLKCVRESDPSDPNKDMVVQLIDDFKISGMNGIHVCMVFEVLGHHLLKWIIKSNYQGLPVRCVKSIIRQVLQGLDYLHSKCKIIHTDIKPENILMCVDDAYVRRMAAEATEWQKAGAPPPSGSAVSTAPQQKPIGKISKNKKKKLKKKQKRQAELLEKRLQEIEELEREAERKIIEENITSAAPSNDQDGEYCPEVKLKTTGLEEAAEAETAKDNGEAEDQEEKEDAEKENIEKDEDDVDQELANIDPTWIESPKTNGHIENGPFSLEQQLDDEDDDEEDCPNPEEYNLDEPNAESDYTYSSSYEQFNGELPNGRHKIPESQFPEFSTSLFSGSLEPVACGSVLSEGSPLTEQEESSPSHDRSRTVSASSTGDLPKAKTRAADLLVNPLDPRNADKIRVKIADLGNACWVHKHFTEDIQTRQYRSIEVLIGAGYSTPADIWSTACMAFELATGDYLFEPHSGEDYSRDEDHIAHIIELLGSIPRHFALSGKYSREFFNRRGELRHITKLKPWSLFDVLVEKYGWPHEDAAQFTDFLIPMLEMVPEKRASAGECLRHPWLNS

In the case of `CN(C(=O)CN1CCOCC1)c1ccc2sc3c(-c4cccc5c(=O)cc(N6CC7CCC(C6)O7)oc45)cccc3c2c1` [NU5455], the inhibition at 1 µM is reported as 3.9%.
